This is an account of results in patent US10457707B2, “Substituted urea depsipeptide analogs as activators of the CLPP endopeptidase” (priority 2015, dated 2019).

Test [1] has as its system Enterococcus faecalis, ATCC 33186. The test is described as follows: Minimal inhibitory concentration assay (microbroth dilution). Format: cell-based. In outline: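 Broth microdilution per CLSI M7-A7: two-fold serial dilutions of compound in broth (top final concentration 200 μM) were inoculated with ~10^5 cfu/mL bacteria and incubated aerobically overnight at 37 °C. MIC was read visually as the lowest concentration preventing growth.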
On the technique in general: In broth dilution the organism is exposed to a series of concentrations in liquid medium.

The next test deals with T1, Sa-ClpP (Staphylococcus aureus, UniProt Q2G036).
T1 construct: made in house; host or cells: E. coli BL21(DE3)
T1 sequence (Q2G036 1-195): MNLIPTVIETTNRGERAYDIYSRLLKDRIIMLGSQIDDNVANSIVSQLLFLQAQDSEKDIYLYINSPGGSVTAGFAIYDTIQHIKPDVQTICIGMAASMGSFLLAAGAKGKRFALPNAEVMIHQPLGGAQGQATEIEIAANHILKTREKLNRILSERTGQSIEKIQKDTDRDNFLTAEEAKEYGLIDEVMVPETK
The test is described as follows: ADEP displacement fluorescence polarization assay (FP probe ADEP 2591). Format: binding. In outline: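 Master mix of 15 μM S. aureus ClpP with 50 nM TAMRA-labelled ADEP 2591 probe in Tris-HCl pH 8.0, 2% DMSO, was pre-equilibrated 1 h, then incubated with compound 120 min at room temperature. Polarization (ex 530, em 579 nm) was normalized to 200 μM ADEP 2378 and DMSO controls; four-parameter fits, triplicate.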
In general terms: Polarisation of emitted light reports the rotation of a fluorescent probe.

Where [2] appears, read: Enterococcus faecalis, ATCC33186; read-out: Minimal Inhibitory Concentrations E. faecalis ATCC 33186.
The mark [3] stands for this setting: Enterococcus faecalis, ATCC33186, read-out: Minimal Inhibitory Concentrations E. faecalis ATCC 33186.

Values after ≈ are worked out from the molar mass of the structure shown. Read-outs that look alike come from different tables or passages of the source. *1 amine or outer side, *2 acyl side, *3 side chain or, on linkers, in order; H or OH if unused. Where a SMILES comes first, the peptide text is derived from it. Bridges are numbered along the chain shown (N, C = ends). [ ]: non-standard residue; d: D form. The star is where a group is joined. ξ: configuration not given here. NH(1,3-benzodioxol-5-yl) = c1cc2c(cc1N*)OCO2; Phe(3,5-F2) = N[C@@H](Cc1cc(F)cc(F)c1)C(=O)O; NH(1-Me-indolin-5-yl) = CN1CCc2cc(N*)ccc21; Morpholine(3S-CO) = O=C(O)[C@@H]1COCCN1; NH(4-Cl-2-F-phenyl) = Fc1cc(Cl)ccc1N*; Pro(4R-Me) = C[C@H]1CN[C@H](C(=O)O)C1; Hyp = O=C(O)[C@@H]1C[C@@H](O)CN1; NH(4-Et-phenyl) = CCc1ccc(N*)cc1; NH(4-Me-phenyl) = Cc1ccc(N*)cc1; ξNMeThr = CNC(C(=O)O)[C@@H](C)O; aThr = C[C@H](O)[C@H](N)C(=O)O; Pip = O=C(O)[C@@H]1CCCCN1; X2 = CN1CCc2ccc(N*)cc21; CO = O=C([*:1])[*:2]

For orientation: IC50 means the point on the concentration scale where inhibition reaches its midpoint. Low readings indicate inhibition by little substance, high ones a need for much substance. On to `C[C@@H]1C[C@H]2C(=O)O[C@@H](C)[C@H](NC(=O)[C@H](Cc3cc(F)cc(F)c3)NC(=O)Nc3ccc(Cl)cc3F)C(=O)N3CCC[C@H]3C(=O)N3CCOC[C@H]3C(=O)N[C@@H](C)C(=O)N2C1` [Compound 314, (S)-2-(3-(4-chloro-2-fluorophenyl)ureido)-3-(3,5-difluorophenyl)-N-((6aS,12S,13S,15aS,17R,21S,23aS)-13,17,21-trimethyl-6,11,15,20,23-pentaoxooctadecahydro-6H,11H,15H-[1,4]oxazino[3,4-i]dipyrrolo[2,1-c:2′,1′-l][1]oxa[4,7,10,13]tetraazacyclo-hexadecin-12-yl)propanamide] ({NH(4-Cl-2-F-phenyl)-CO}-[Phe(3,5-F2)][aThr]P[Morpholine(3S-CO)]A[Pro(4R-Me)]; ester 2-C), for which, in test [1] (setting [2]), the MIC was determined as 0.039 µM (≈ 0.0331 µg/mL). The compound further returned an IC50 on Sa-ClpP of 7.2 ± 0.3 µM.

`C[C@@H]1C[C@H]2C(=O)O[C@@H](C)[C@H](NC(=O)[C@H](Cc3cc(F)cc(F)c3)NC(=O)Nc3ccc4c(c3)CCN4C)C(=O)N3C[C@H](O)C[C@H]3C(=O)N3CCOC[C@H]3C(=O)N[C@@H](C)C(=O)N2C1` [Compound 315, (S)-3-(3,5-difluorophenyl)-N-((6aS,8R,12S,13S,15aS,17R,21S,23aS)-8-hydroxy-13,17,21-trimethyl-6,11,15,20,23-pentaoxooctadecahydro-6H,11H,15H-[1,4]oxazino[3,4-i]dipyrrolo[2,1-c:2′,1′-l][1]oxa[4,7,10,13]tetraazacyclohexadecin-12-yl)-2-(3-(1-methylindolin-5-yl)ureido)propanamide] ({NH(1-Me-indolin-5-yl)-CO}-[Phe(3,5-F2)][aThr][Hyp][Morpholine(3S-CO)]A[Pro(4R-Me)]; ester 2-C): the MIC in test [1] (setting [3]) worked out at 0.625 µM (≈ 0.542 µg/mL). The half-maximal inhibitory concentration (IC50) at Sa-ClpP is 13.5 ± 0.6 µM.

As to `C[C@@H]1C[C@H]2C(=O)O[C@@H](C)[C@H](NC(=O)[C@H](Cc3cc(F)cc(F)c3)NC(=O)Nc3ccc(Cl)cc3F)C(=O)N3C[C@H](O)C[C@H]3C(=O)N3CCOC[C@H]3C(=O)N[C@@H](C)C(=O)N2C1` [Compound 316, (S)-2-(3-(4-chloro-2-fluorophenyl)ureido)-3-(3,5-difluorophenyl)-N-((6aS,8R,12S,13S,15aS,17R,21S,23aS)-8-hydroxy-13,17,21-trimethyl-6,11,15,20,23-pentaoxooctadecahydro-6H,11H,15H-[1,4]oxazino[3,4-i]dipyrrolo[2,1-c:2′,1′-l][1]oxa[4,7,10,13]tetraazacyclo-hexadecin-12-yl)propanamide] ({NH(4-Cl-2-F-phenyl)-CO}-[Phe(3,5-F2)][aThr][Hyp][Morpholine(3S-CO)]A[Pro(4R-Me)]; ester 2-C), the MIC in test [1] (setting [2]) stood at 0.078 µM (≈ 0.0674 µg/mL). At Sa-ClpP, this compound registered an IC50 of 6.9 ± 0.3 µM.

Turning to `Cc1ccc(NC(=O)N[C@@H](Cc2cc(F)cc(F)c2)C(=O)N[C@H]2COC(=O)[C@@H]3C[C@@H](C)CN3C(=O)[C@H](C)NC(=O)[C@@H]3COCCN3C(=O)[C@@H]3C[C@@H](O)CN3C2=O)cc1` [Compound 317, (S)-3-(3,5-difluorophenyl)-N-((6aS,8R,12S,15aS,17R,21S,23aS)-8-hydroxy-17,21-dimethyl-6,11,15,20,23-pentaoxooctadecahydro-6H,11H,15H-[1,4]oxazino[3,4-i]dipyrrolo[2,1-c:2′,1′-l][1]oxa[4,7,10,13]tetraazacyclohexadecin-12-yl)-2-(3-(p-tolyl)ureido)propanamide] ({NH(4-Me-phenyl)-CO}-[Phe(3,5-F2)]S[Hyp][Morpholine(3S-CO)]A[Pro(4R-Me)]; ester 2-C), in test [1] (setting [3]), the MIC turned out to be 0.313 µM (≈ 0.254 µg/mL). The IC50 on Sa-ClpP amounted to 7.25 ± 0.5 µM.

For `C[C@@H]1C[C@H]2C(=O)OC[C@H](NC(=O)[C@H](Cc3cc(F)cc(F)c3)NC(=O)Nc3ccc4c(c3)OCO4)C(=O)N3C[C@H](O)C[C@H]3C(=O)N3CCOC[C@H]3C(=O)N[C@@H](C)C(=O)N2C1` [Compound 318, (S)-2-(3-(benzo[d][1,3]dioxol-5-yl)ureido)-3-(3,5-difluorophenyl)-N-((6aS,8R,12S,15aS,17R,21S,23aS)-8-hydroxy-17,21-dimethyl-6,11,15,20,23-pentaoxooctadecahydro-6H,11H,15H-[1,4]oxazino[3,4-i]dipyrrolo[2,1-c:2′,1′-l][1]oxa[4,7,10,13]tetraazacyclo-hexadecin-12-yl)propanamide] ({NH(1,3-benzodioxol-5-yl)-CO}-[Phe(3,5-F2)]S[Hyp][Morpholine(3S-CO)]A[Pro(4R-Me)]; ester 2-C), the MIC in test [1] (setting [2]) is greater than 20 µM. This compound also registered an IC50 on Sa-ClpP of 6.54 ± 0.5 µM.

As for `C[C@@H]1C[C@H]2C(=O)O[C@@H](C)[C@H](NC(=O)[C@H](Cc3cc(F)cc(F)c3)NC(=O)Nc3ccc4c(c3)OCO4)C(=O)N3C[C@H](O)C[C@H]3C(=O)N3CCOC[C@H]3C(=O)N[C@@H](C)C(=O)N2C1` [Compound 319, (S)-2-(3-(benzo[d][1,3]dioxol-5-yl)ureido)-3-(3,5-difluorophenyl)-N-((6aS,8R,12S,13S,15aS,17R,21S,23aS)-8-hydroxy-13,17,21-trimethyl-6,11,15,20,23-pentaoxooctadecahydro-6H,11H,15H-[1,4]oxazino[3,4-i]dipyrrolo[2,1-c:2′,1′-l][1]oxa[4,7,10,13]tetraazacyclo-hexadecin-12-yl)propanamide] ({NH(1,3-benzodioxol-5-yl)-CO}-[Phe(3,5-F2)][aThr][Hyp][Morpholine(3S-CO)]A[Pro(4R-Me)]; ester 2-C), the MIC in test [1] (setting [2]) was 0.313 µM (≈ 0.268 µg/mL). At Sa-ClpP, this compound yielded an IC50 of 7.75 ± 0.6 µM.

Turning to `CCc1ccc(NC(=O)N[C@@H](Cc2cc(F)cc(F)c2)C(=O)N[C@@H]2C(=O)N3C[C@H](O)C[C@H]3C(=O)N3CCOC[C@H]3C(=O)N[C@@H](C)C(=O)N3C[C@H](C)C[C@H]3C(=O)O[C@H]2C)cc1` [Compound 320, (S)-3-(3,5-difluorophenyl)-2-(3-(4-ethylphenyl)ureido)-N-((6aS,8R,12S,13S,15aS,17R,21S,23aS)-8-hydroxy-13,17,21-trimethyl-6,11,15,20,23-pentaoxooctadecahydro-6H,11H,15H-[1,4]oxazino[3,4-i]dipyrrolo[2,1-c:2′,1′-l][1]oxa[4,7,10,13]-tetraazacyclohexadecin-12-yl)propanamide] ({NH(4-Et-phenyl)-CO}-[Phe(3,5-F2)][aThr][Hyp][Morpholine(3S-CO)]A[Pro(4R-Me)]; ester 2-C), the MIC in test [1] (setting [2]) was 0.078 µM (≈ 0.0655 µg/mL). The IC50 at Sa-ClpP was determined as 7.48 ± 0.6 µM.

On to `C[C@@H]1C[C@H]2C(=O)O[C@@H](C)[C@H](NC(=O)[C@H](Cc3cc(F)cc(F)c3)NC(=O)Nc3ccc4c(c3)N(C)CC4)C(=O)N3CCC[C@H]3C(=O)N3CCCC[C@H]3C(=O)N[C@@H](C)C(=O)N2C1` [Compound 321, (S)-3-(3,5-difluorophenyl)-2-(3-(1-methylindolin-6-yl)ureido)-N-((2R,6S,8aS,14aS,20S,21S,23aS)-2,6,21-trimethyl-5,8,14,19,23-pentaoxooctadecahydro-1H,5H,14H,19H-pyrido[2,1-i]dipyrrolo[2,1-c:2′,1′-l][1]oxa[4,7,10,13]tetraazacyclo-hexadecin-20-yl)propanamide] ({X2-CO}-[Phe(3,5-F2)][aThr]P[Pip]A[Pro(4R-Me)]; ester 2-C), for which the MIC in test [1] (setting [3]) was 0.078 µM (≈ 0.0662 µg/mL). The IC50 on Sa-ClpP came to 8.23 ± 0.7 µM.

Consider `Cc1ccc(NC(=O)N[C@@H](Cc2cc(F)cc(F)c2)C(=O)N[C@H]2COC(=O)[C@@H]3C[C@@H](C)CN3C(=O)[C@H](C)NC(=O)C([C@@H](C)O)N(C)C(=O)[C@@H]3CCCN3C2=O)cc1` (stereo partly drawn) [Compound 322, (S)-3-(3,5-difluorophenyl)-N-((2R,6S,9R,11aS,17S,20aS)-9-((R)-1-hydroxyethyl)-2,6,10-trimethyl-5,8,11,16,20-pentaoxohexadecahydro-1H,5H,16H-dipyrrolo[2,1-c:2′,1′-l][1]oxa[4,7,10,13]tetraazacyclohexadecin-17-yl)-2-(3-(p-tolyl)ureido)propanamide] ({NH(4-Me-phenyl)-CO}-[Phe(3,5-F2)]SP[ξNMeThr]A[Pro(4R-Me)]; ester 2-C), for which the MIC in test [1] (setting [3]) was greater than 20 µM. Moreover, at Sa-ClpP, the IC50 was 8.54 ± 0.4 µM.

Regarding `C[C@@H]1C[C@H]2C(=O)O[C@@H](C)[C@H](NC(=O)[C@H](Cc3cc(F)cc(F)c3)NC(=O)Nc3ccc(Cl)cc3F)C(=O)N3C[C@H](O)C[C@H]3C(=O)N3CCCC[C@H]3C(=O)N[C@@H](C)C(=O)N2C1` [Compound 329, (S)-2-(3-(4-chloro-2-fluorophenyl)ureido)-3-(3,5-difluorophenyl)-N-((2R,6S,8aS,14aS,16R,20S,21S,23aS)-16-hydroxy-2,6,21-trimethyl-5,8,14,19,23-pentaoxooctadecahydro-1H,5H,14H,19H-pyrido[2,1-i]dipyrrolo[2,1-c:2′,1′-l][1]oxa[4,7,10,13]tetraazacyclo-hexadecin-20-yl)propanamide] ({NH(4-Cl-2-F-phenyl)-CO}-[Phe(3,5-F2)][aThr][Hyp][Pip]A[Pro(4R-Me)]; ester 2-C), in test [1] (setting [2]), the MIC is 0.039 µM (≈ 0.0336 µg/mL). This compound gave an IC50 on Sa-ClpP of 7.32 ± 0.4 µM.
